Experimental data reported in patent US20250332105A1, “AMORPHOUS SOLID DISPERSION COMPRISING (S)-1-(1-ACRYLOYLPYRROLIDIN-3-YL)-3-((3,5-DIMETHOXYPHENYL)ETHYNYL)-5-(METHYLAMINO)-1H-PYRAZOLE-4-CARBOXAMIDE” (BEIJING INNOCARE PHARMA TECH CO., LTD., priority 2024, published 2025).
Values after ≈ are worked out from the molar mass of the structure shown.

Tests used:
[1] = Equilibrium solubility in water; type: physicochemical; conditions: after equilibrium in water at room temperature for 24 hours
[2] = Solubility profiles in pH 6.8 phosphate buffer; type: physicochemical; conditions: aqueous buffer, thermodynamic from solid, 37° C., 150 rpm, n = 3
Procedure: Phosphate buffer (pH 6.8): 3.40 g of potassium dihydrogen phosphate and 0.45 g of sodium hydroxide were dissolved in 500 mL of water.
Type A: About 8.0 mg of Type A sample was added to 20 mL of the phosphate buffer (pH 6.8) in a 30-mL glass vial. The vial was capped, placed in a shaker, and kept shaking with 150 rpm at 37° C. At indicated time intervals (10, 30, 60, 120, 240 min), a fraction of the suspension was removed and filtered through a 0.45-μm filter by discarding the first part of the filtrate. The filtrate was diluted and then analyzed by HPLC.
ASD: An appropriate amount of ASD (about 3.0 mg of Compound I) was added to 7.5 mL of the phosphate buffer (pH 6.8) in a 30-mL glass vial. The vial was capped, placed in a shaker, and kept shaking with 150 rpm at 37° C. At indicated time intervals (10, 30, 60, 120, 240 min), a fraction of the suspension was removed and centrifuged at 12,000 rpm for 5 minutes to give a clear solution that was then analyzed by HPLC.

[3] = Glass transition temperature determination by DSC; type: physicochemical; conditions: 0 to 210° C. at 10° C./min
Procedure: Type A: Accurately weighted Type A sample (2˜5 mg) was placed in a DSC pan which was then sealed and placed in TA Instruments Q2000. The pan was heated from room temperature to 230° C. at a rate of 20° C./min and after 5 min, rapidly cooled to 0° C. at a rate of 50° C./min. After another 5 min, the DSC analysis was carried out between 0 to 210° C. at a rate of 10° C./min.
ASD: Accurately weighted ASD sample (2˜5 mg) was placed in a DSC pan which was then sealed and placed in TA Instruments Q2000. The pan was heated from room temperature to 135° C. at a rate of 20° C./min and after 5 minutes, rapidly cooled to 0° C. at a rate of 50° C./min. After another 5 min, the DSC analysis was carried out between 0 to 210° C. at a rate of 10° C./min (FIG. 2 and FIG. 3).

[4] = Stability assessment of ASD (XRPD, DSC, solubility, relative substances after storage); type: physicochemical; conditions: no storage (drug substance)
Excerpt: Capped brown glass vials each containing an ASD sample (HPMCAS-10-SDD and PVPVA-10-HME) were placed inside stability chambers.

[5] = In vivo PK, oral administration in beagle dogs; conditions: dog, blood, fasted beagle dogs, 3 mg/kg, Type A as 0.5% MC suspension, HPMCAS-10-SDD as tablet
Procedure: Type A and HPMCAS-10-SDD were formulated with excipients, respectively. The PK properties of two formulations administered orally in beagle dogs were evaluated. Each formulation was tested in three dogs, each weighed 8˜12 kg.
A formulation was prepared by wet granulation. Firstly, mannitol, pregelatinized starch, sodium carboxymethyl starch and sodium dodecyl sulfate of different amounts were mixed evenly according to Table 8. Secondly, Type A and Povidone K30 were added into an appropriate amount of absolute alcohol, stirred, and mixed as adhesive. Finally, the adhesive was added to the evenly mixed excipients, followed by granulation, drying, addition of magnesium stearate, and mixing into a powder.
The above formulation was added to 0.5% methylcellulose (MC) to give a suspension containing 0.6 mg/mL of Compound I. The suspension was then orally administered to fasted beagle dogs at 5 mL/kg, which was equivalent to a dose of 3 mg/kg. Blood samples were collected at 0.25, 0.5, 1, 2, 4, 8 and 24 hours post dose. Concentrations of Compound I were quantified by LC-MS/MS analysis using an API-4500 mass spectrometer.
A formulation was prepared by dry granulation. […]
Four tablets were orally administered to fasted beagle dogs at a dose of 3 mg/kg. […] Concentrations of Compound I were quantified by LC-MS/MS analysis.

- solubility [1]: 6.4 µg/mL (≈ 15.1 µM)
- solubility at 10 min ([2]; 10 min): 4.88 µg/mL (≈ 11.5 µM)
- solubility at 30 min ([2]; 30 min): 7.91 µg/mL (≈ 18.7 µM)
- solubility at 60 min ([2]; 60 min): 7.81 µg/mL (≈ 18.4 µM)
- solubility at 120 min ([2]; 120 min): 7.62 µg/mL (≈ 18 µM)
- solubility at 240 min ([2]; 240 min): 8.47 µg/mL (≈ 20 µM)
- Tg [3]: 70.1 °C
- Total Impurities [4]: 0.19%
- AUC(0-t) [5]: 1250 ng·h/mL
- Cmax [5]: 270 ng/mL
SMILES: C=CC(=O)N1CC[C@H](n2nc(C#Cc3cc(OC)cc(OC)c3)c(C(N)=O)c2NC)C1 [Type A, (S)-1-(1-acryloylpyrrolidin-3-yl)-3-((3,5-dimethoxyphenyl)ethynyl)-5-(methylamino)-1H-pyrazole-4-carboxamide]
